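Five concentrations, 48 hours, 96-well plates. TGI: total growth inhibition.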
How the values were obtained:
Assay in all cases: NCI tumour cell line growth inhibition, 48 h
HOP-62 NSCLC = test system: HOP-62 NSCLC
T-47D breast = test system: T-47D breast
CAKI-1 renal = test system: CAKI-1 renal
MDA-MB-231 breast = test system: MDA-MB-231 breast
U251 CNS = test system: U251 CNS
BT-549 breast = test system: BT-549 breast
MDA-N = test system: MDA-N
A498 renal = test system: A498 renal
SK-MEL-5 melanoma = test system: SK-MEL-5 melanoma
UO-31 renal = test system: UO-31 renal
SNB-75 CNS = test system: SNB-75 CNS
NCI-H460 lung = test system: NCI-H460 lung
HL-60(TB) leukemia = test system: HL-60(TB) leukemia
SR leukemia = test system: SR leukemia
TK-10 renal = test system: TK-10 renal
OVCAR-4 ovarian = test system: OVCAR-4 ovarian
COLO 205 colon = test system: COLO 205 colon
HCC-2998 colon = test system: HCC-2998 colon
ACHN renal = test system: ACHN renal
EKVX NSCLC = test system: EKVX NSCLC

Row | Structure (SMILES) | TGI (HOP-62 NSCLC) [µM] | TGI (T-47D breast) [µM] | TGI (CAKI-1 renal) [µM] | TGI (MDA-MB-231 breast) [µM] | TGI (U251 CNS) [µM] | TGI (BT-549 breast) [µM] | TGI (MDA-N) [µM] | TGI (A498 renal) [µM] | TGI (SK-MEL-5 melanoma) [µM] | TGI (UO-31 renal) [µM] | TGI (SNB-75 CNS) [µM] | TGI (NCI-H460 lung) [µM] | TGI (HL-60(TB) leukemia) [µM] | TGI (SR leukemia) [µM] | TGI (TK-10 renal) [µM] | TGI (OVCAR-4 ovarian) [µM] | TGI (COLO 205 colon) [µM] | TGI (HCC-2998 colon) [µM] | TGI (ACHN renal) [µM] | TGI (EKVX NSCLC) [µM]
1 | c1ccc(C2SCC3=Nc4ccccc4CN32)cc1 (stereo not drawn) | > 100 | > 100 | > 100 | > 100 | > 100 | > 100 | > 100 | > 100 | 32.2 | > 100 | > 100 | > 100 | 89.9 | > 100 | > 100 | > 100 | > 100 | > 100 |  | 
2 | Cc1nc2c(o1)C(=O)c1ccccc1/C2=N/c1ccccn1 | 37.8 |  | 47.9 | 69.3 | 30.4 | 32.2 | 32.6 | 30.7 | 30.4 | 39.3 | 20.9 | 29.8 | 44.2 | 97.3 | > 100 | 28.2 | > 100 | > 100 | 39.8 | 41.6
3 | CC(=O)Nc1ccc(CNc2cc(=O)[nH]c(=O)[nH]2)cc1 | > 100 | > 100 | > 100 | > 100 | > 100 | > 100 | > 100 |  | > 100 | > 100 | > 100 | > 100 | > 100 | > 100 | > 100 | > 100 | > 100 | > 100 | > 100 | > 100
4 | COP(C)(=O)/C(Cc1ccccc1)=N\O (stereo not drawn) | > 100 | > 100 | > 100 | > 100 | > 100 |  | > 100 |  | > 100 | > 100 | > 100 | > 100 | > 100 | > 100 | > 100 | > 100 | > 100 | > 100 | > 100 | 
5 | C/C(=N\Nc1ccc([N+](=O)[O-])cc1[N+](=O)[O-])c1ccc2ccccc2n1 |  | > 100 | > 100 | > 100 | > 100 | > 100 | > 100 |  | > 100 | > 100 | > 100 | > 100 |  | > 100 | > 100 |  | > 100 |  | > 100 | > 100
6 | Cc1cccc(Nc2cn(COCc3ccccc3)c(=O)[nH]c2=O)c1 | 86.3 |  | > 100 |  | > 100 | > 100 | > 100 | > 100 | > 100 | > 100 |  | > 100 | > 100 | > 100 |  | > 100 | > 100 | > 100 | > 100 | > 100
7 | O=C1c2ccccc2CC12Cc1cc3c(cc1C2=O)CCC3 (stereo not drawn) | > 100 | > 100 | > 100 | > 100 | > 100 |  | > 100 | > 100 | > 100 | > 100 | > 100 | > 100 | > 100 | > 100 | > 100 | > 100 |  | > 100 | > 100 | > 100
8 | COC(=O)C1=Nc2c(C)nn(-c3ccccc3)c2N=C(c2ccc(C)cc2)C1 | > 10 | > 10 | > 10 | > 10 | > 10 | > 10 | > 10 |  | > 10 |  | > 10 |  | > 10 | > 10 | > 10 | > 10 | > 10 | > 10 | > 10 | 
9 | O=C(/C=C/c1ccc(O)c(O)c1)OCCc1cccc2ccccc12 |  | 42.3 | 20.7 | 7.56 | 21.7 | 21.2 | 5.26 | 24.8 | 5.31 | 18.4 | 9.57 | 29.9 | 3.52 | 5.64 | 13.6 | 23.9 | 20.5 | 23.4 | 13.4 | 
10 | CCCNC(=S)N/N=C/c1cccc(C)n1 | > 100 | > 100 |  | > 100 | > 100 |  | > 100 | 87.3 | > 100 | > 100 |  |  | 50.8 | 48.3 | > 100 | > 100 | > 100 | > 100 | 44.7 | > 100
11 | CC(C)(C)c1ccc(CN2CCN(C(c3ccccc3)c3ccc(Cl)cc3)CC2)cc1 (stereo not drawn) | > 100 | 54.9 | > 100 | > 100 | > 100 | > 100 | > 100 | > 100 | 73.1 | > 100 | > 100 | > 100 |  | > 100 | > 100 | > 100 | > 100 | 89.4 | > 100 | > 100
12 | CC(NS(C)(=O)=O)c1ccccc1 (stereo not drawn) | > 100 | > 100 | > 100 | > 100 | > 100 | > 100 | > 100 |  | > 100 | > 100 | > 100 | > 100 | > 100 | > 100 | > 100 | > 100 | > 100 | > 100 |  | 
13 | CCC1CC2CN3CCc4c([nH]c5c(-c6c(OC)ccc7c8c([nH]c67)[C@]6(C(=O)OC)CC7CC(CC)C6N(CC8)C7)c(O)ccc45)[C@](C(=O)OC)(C2)C13 (stereo partly drawn) | 28.5 | 23 | 25.2 | 47.1 | 25.7 | 33.7 | 24.6 | 28.7 | 27.4 | 27.1 | 48.8 | 29.2 |  | 45.4 | 33.4 |  | 24.7 | 27.2 | 64 | 39.7
14 | c1ccc(N=C2SC(=NNc3ccccc3)SC2=Nc2ccccc2)cc1 | > 100 | > 100 | > 100 | > 100 | > 100 |  | > 100 | > 100 | > 100 | > 100 | > 100 | > 100 | > 100 | > 100 | > 100 | > 100 | > 100 | > 100 | > 100 | > 100
15 | O=C1c2cc3ccccc3cc2C2(c3ccc(Cl)cc3)N[C@H]3CCCC[C@@H]3N12 (stereo partly drawn) | 20.3 | 52.7 | 70.3 | 36.2 | 30.1 | 36.9 | 57.8 | 39.7 | 42.8 | 57.6 | 37.5 | 47.3 | 55.6 | 48.7 | 27.3 | 21.3 | > 100 |  | 38.7 | 26.8
16 | Cc1nn(C(=O)c2ccc(Cl)cc2)c2c1C(c1ccc([N+](=O)[O-])cc1)SC(N)=N2 (stereo not drawn) | > 10 | > 10 | > 10 | > 10 | > 10 | > 10 | > 10 |  | > 10 |  | > 10 | > 10 | > 10 | > 10 | > 10 | > 10 | > 10 | > 10 | > 10 | > 10
17 | O=C(N/N=C1\CCc2ccccc2C1)N/N=C1\CCc2ccccc2C1 | > 10 | > 10 | > 10 | > 10 | > 10 | > 10 | > 10 |  |  | > 10 |  | > 10 | > 10 | > 10 | > 10 | > 10 | > 10 | > 10 | > 10 | > 10
18 | CCc1n[nH]c(=O)n1N1C(=O)C2CC=CCC2C1=O (stereo not drawn) | > 100 | > 100 | > 100 | > 100 | > 100 | > 100 | > 100 | > 100 | > 100 | > 100 | > 100 | > 100 |  | > 100 | > 100 | > 100 | > 100 | > 100 | > 100 | > 100
19 | CC(=O)Nc1ncc(Sc2ccccc2C(=O)O)s1 | > 100 | > 100 | > 100 | > 100 | > 100 | > 100 | > 100 | > 100 | > 100 | > 100 | > 100 | > 100 | > 100 | > 100 | > 100 |  | > 100 |  | > 100 | > 100
20 | COC(=O)CC1(CNC(=O)OCc2ccccc2)OCCO1 |  |  | > 100 | > 100 | > 100 | > 100 | > 100 | > 100 | > 100 | > 100 | > 100 | > 100 | > 100 | > 100 | > 100 | > 100 | > 100 | > 100 | > 100 | > 100
21 | COc1cc(OC)c2c(c1OC)OCC(Cc1ccc(O)cc1)C2=O (stereo not drawn) | > 25 | > 25 | > 25 | > 25 | > 25 |  | > 25 | > 25 | > 25 | > 25 | > 25 | > 25 | > 25 | > 25 | > 25 | > 25 | > 25 |  | > 25 | 
22 | O=C(O)CSc1cc(-c2ccccc2)nc2ccccc12 | > 100 | > 100 | > 100 | > 100 | > 100 | > 100 | > 100 | 67 | > 100 | > 100 |  | > 100 | 58.2 | > 100 | > 100 | > 100 |  |  | > 100 | > 100
23 | N#CCC(=O)Nn1c(CC#N)nnc1Cc1ccccc1 | > 100 | > 100 | > 100 | > 100 | > 100 | > 100 | > 100 |  | > 100 | > 100 | > 100 | > 100 | > 100 | > 100 | > 100 |  |  | > 100 | > 100 | 
24 | NNC(=O)c1c(Cl)c(Cl)c(Cl)c(Cl)c1-c1nc2ccccc2[nH]1 | 21.4 | 24 | 38 | > 100 |  | 46.5 | 18.9 | 49.9 | 29.9 | 39.5 | 38.2 | 31 | 38.1 | 15.6 | 63.2 |  | 62 | 22.5 | 67.2 | 45.3
25 | Cc1ccc2c(c1)NC(=O)CCSSCCC(=O)N2 | > 100 | > 100 | > 100 | > 100 | > 100 | > 100 | > 100 | > 100 | > 100 | > 100 |  | > 100 | > 100 | > 100 | > 100 | > 100 | > 100 |  | > 100 | > 100
26 | CC[N+]1(C)CCC(O)(c2ccc(Cl)cc2)C(C(=O)c2ccc(Cl)cc2)C1 (stereo not drawn) | 46.8 | 17.8 |  | 40.5 | 56.8 |  | 41.3 | 48.3 |  | 34.5 |  | 63.8 | > 100 | 36.4 | 34.1 | 78.4 | 23.8 | 36.3 | 33.5 | 
27 | N#Cc1c(-c2ccccc2)/c(=C\O)c(=O)n2c1nc1ccccc12 |  | > 100 | > 100 | > 100 | > 100 | > 100 | > 100 | > 100 | > 100 | > 100 | 91.9 | > 100 | > 100 | > 100 | > 100 | > 100 | > 100 |  | > 100 | > 100
